Experimental data taken from patent US6221847A, “Composition and method for treating bacterial infection” (Clemson University, priority 1999, dated 2001).

Tests used:
Type in all cases: cell-based
[1] = system: Propionibacterium acnes ATCC 11827; assay: Spot on lawn method (Example IV), nisin; details: 4,000 International Units per milliliter
Description: (§1) Propionibacterium acnes, Propionibacterium granulosum, or other cutaneous propionibacteria to be examined for sensitivity to the bacteriocin are grown in actinomyces broth at 37° C. for 2 days under anaerobic conditions. Cultures (15 μL) being examined for sensitivity are added to soft actinomyces agar (5 ml) and the mixture is applied uniformly over each actinomyces agar plate. Preparations concentrated so as to contain 6,400 Activity Units/ml of bacteriocins are spotted (25 μl spots) onto the surface of the prepared plates. These plates are held at 37° C. for 2 days under anaerobic conditions to permit growth of the cutaneous culture and examined for zones of inhibition (lack of growth) where the bacteriocin was applied. Zones are evidence of bacteriocin inhibition.
(§2) Specifically, a solution of nisin containing 4,000 International Units per milliliter was tested for activity against Propionibacterium acnes ATCC 6919, Propionibacterium acnes ATCC 11827, Propionibacterium avidum ATCC 25577 and Propionibacterium granulosum ATCC 25564 according to the method described in Example IV above. It was observed that nisin inhibited all of the cutaneous cultures.

[2] = system: Propionibacterium acnes ATCC 6919; assay: Spot on lawn method (Example IV), nisin; details: 4,000 International Units per milliliter
Description: as §1, §2

[3] = system: Propionibacterium avidum ATCC 25577; assay: Spot on lawn method (Example IV), nisin; details: 4,000 International Units per milliliter
Description: as §1, §2

[4] = system: Propionibacterium granulosum ATCC 25564; assay: Spot on lawn method (Example IV), nisin; details: 4,000 International Units per milliliter
Description: as §1, §2

[5] = system: Propionibacterium acnes ATCC 11827; assay: Broth culture growth with nisin; details: 400 International Units per milliliter, anaerobic, 37° C., 24 hours
Description: (§3) Nisin at a final concentration of 400 International Units per milliliter was also added to broth cultures of each of the above bacteria strains. The broth cultures were incubated anaerobically at 37° C. for 24 hours.

[6] = system: Propionibacterium acnes ATCC 6919; assay: Broth culture growth with nisin; details: 400 International Units per milliliter, anaerobic, 37° C., 24 hours
Description: as §3

[7] = system: Propionibacterium avidum ATCC 25577; assay: Broth culture growth with nisin; details: 400 International Units per milliliter, anaerobic, 37° C., 24 hours
Description: as §3

[8] = system: Propionibacterium granulosum ATCC 25564; assay: Broth culture growth with nisin; details: 400 International Units per milliliter, anaerobic, 37° C., 24 hours
Description: as §3

## nisin
[1]
  inhibition (zones): inhibited
[2]
  inhibition (zones): inhibited
[3]
  inhibition (zones): inhibited
[4]
  inhibition (zones): inhibited
[5]
  growth of broth culture: markedly reduced the growth
[6]
  growth of broth culture: markedly reduced the growth
[7]
  growth of broth culture: markedly reduced the growth
[8]
  growth of broth culture: markedly reduced the growth
